The values below come from patent US20260355079A1, “Oral Care Compositions Comprising Hops Beta Acids And Fluoride Ions” (priority 2019, published 2026).

This experiment concerns 3-day biofilm (plaque biofilm). Kind of experiment: in vitro plaque glycolysis model (iPGRM): acid production and acid (glycolysis) inhibition. In kind it is cell-based, plaque microorganisms from pooled human saliva. The following applies: TABLE 2; 2 min treatment, slurry in water (1:5). On the procedure:
Acid Production and Acid Inhibition [%]
Acid production and acid inhibition were determined with the in vitro plaque glycolysis model (iPGRM). The purpose of this technique is to provide a simple and quick method for determining if compounds have an influence on the metabolic pathways that plaque microorganisms utilize to produce toxins that adversely affect gingival health.
The in vitro plaque glycolysis model (iPGRM) is a technique in which plaque is grown from human saliva and treated with various agents to determine anti-glycolytic activity of treatments. When bacteria convert sugar into energy with the help of enzymes, acids are formed. These acids demineralize and damage the dental enamel. The purpose of this technique is to provide a simple and quick method for determining if treatment compounds have an inhibitory effect on the metabolic pathways that plaque microorganisms utilize for the production of acids or toxins and/or inhibit their growth. […]
[…] The pH of the media solutions was then measured to determine the amount of glycolysis inhibition relative to a negative control.
On Day 1, new glass rods (5 mm×90 mm) were polished approximately 25 mm from the un-tapered end on a lathe with silicon carbide paper of 240, 320, 400, and 600 grit used sequentially. […] After polishing, rods were stored until ready to run test. […]

As for `[H]/N=C(\N/C(=N/[H])NCCCCCCNC(=N)NC(=N)Nc1ccc(Cl)cc1)Nc1ccc(Cl)cc1` [Chlorhexidine], the “Acid Production (ΔpH), Mean” value was 0.30.
